According to patent publication US5939578A, “Vasomolol: an ultra short-acting and vasodilatory vanilloid type β - adrenoceptor antagonist” (Lin; Tong-Ho, priority 1996, dated 1999):

How the values were obtained:
[1] = tested on: phenylephrine-induced pressor response; test: Inhibition of phenylephrine-induced pressor response during intravenous infusion; assay type: in vivo, reserpinized rats; conditions: infusion 300 μg/kg/min; phenylephrine 10 μg/kg i.v.; data not shown
Procedure: The method reported in Gen. Pharmacol. 24, 1425, 1993 (by inventor group),
phenylephrine (10 μg/klg, i.v.)

[2] = target: T1, β-adrenoceptor, ventricular membranes (Sus scrofa, UniProt Q28998); test: Competition for [3H]-DHA binding to ventricular membranes; set-up: species or system pig
T1 construct: tissue local slaughterhouse; host or cells: pig heart ventricular membranes
T1 sequence (Q28998 whole entry): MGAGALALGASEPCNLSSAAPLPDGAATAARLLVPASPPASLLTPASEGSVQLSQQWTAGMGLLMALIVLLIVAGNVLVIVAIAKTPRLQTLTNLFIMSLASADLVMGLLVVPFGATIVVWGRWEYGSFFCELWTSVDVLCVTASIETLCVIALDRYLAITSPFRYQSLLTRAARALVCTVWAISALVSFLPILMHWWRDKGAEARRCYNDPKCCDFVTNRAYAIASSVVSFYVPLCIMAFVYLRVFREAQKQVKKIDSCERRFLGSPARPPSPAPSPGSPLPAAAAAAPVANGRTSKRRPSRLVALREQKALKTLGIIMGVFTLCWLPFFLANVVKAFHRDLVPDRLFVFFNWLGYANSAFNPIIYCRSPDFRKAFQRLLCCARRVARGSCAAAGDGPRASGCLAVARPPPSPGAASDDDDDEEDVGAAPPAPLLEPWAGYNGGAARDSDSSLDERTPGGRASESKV
Procedure: Pig's heart were obtained from a local slaughterhouse immediately after the animals had been killed and transported to our laboratory in ice-cold buffer (250 mM sucrose/50 mM Tris [hydroxymethyl] aminomethane HCl/1 mM magnesium chloride, pH 7.4). Various heart tissues were removed and prepared as detailed as described in Cardiovasc. […] In the test for receptor binding, the ventricles were placed in ice-cold buffer and all subsequent procedures were carried out at 4° C. The tissue was homogenised in 20 volumes of TE buffer (10 mmole.litre^-1 Tris-HCl, 1 mmole.litre^-1 EDTA, 0.1 mmole.litre^-1 ascorbic acid, pH 7.4) with three 12-s pulses using a Polytron homogenizer (Kinematica, Model PT 3000, Switzerland). The homogenate was filtered with pressure through muslin and the filtrate centrifuged for 10 min at 1000 g to remove connective tissue, unbroken cells and cell debris.
This membrane preparation has been described in Biochem. Biophys. Acta. […] The binding assay of [^3 H]-DHA was carried out as described in Biochem. Biophys. Res. Commun. […] [^3 ]-DHA and ventricular membranes (200-300 μg) were incubated for 60 min at 25° C. with and without the addition of 1 μM alprenolol, in 75 mM Tris-HCI buffer comprising MgCl2 25 mM, to make a final volume of 250 μl. In competitive binding experiments, the competing agent was added directly to the incubation mixture. The incubation was terminated by addition of 1 ml of ice-cold assay buffer followed by immediate filtration through Whatman GF/C glass fiber filters supported on a 12-port filter manifold (Millipore). The filters were immediately washed three times with 5 ml of ice-cold assay buffer and dried in an oven at 60° C. for 2 hr prior to adding 5 ml of Triton-toluene based scintillation fluid.
In each experiment, non-specifically bound [^3 H]-DHA was determined by incubating membrane protein and [^3 H]-DHA with 1 μM alprenolol. Specific binding was thus obtained by deducing this value from the total binding of [^3 H]-DHA for each sample.
All incubations were performed as described in the method section. Data shown are the means of three independent duplicate determinations.

order of potency inhibiting [3H]-DHA binding ([2]; in words): (-) propranolol>>vasomolol=esmolol
IC50 ([2]; mean±S.E.M.): 4.7 ± 1.5 µM
Structure (SMILES): CCOC(=O)c1ccc(OCC(O)CNC(C)(C)C)c(OC)c1 (stereo not drawn) [Vasomolol]
inhibition of phenylephrine-induced pressor response [1]: could not significantly inhibit
